Test results from PMC9675574 (JCI Insight, 2022).
Where “and” joins values, the source holds several entries; their conditions need not be identical. Identical values can stand only once. Like-named read-outs stand apart in the source and are kept apart here.

Assays:
[1] = tested on: cerulein-induced pancreatitis in PRSS1^R122H mice; settings: cited from earlier work
trypsin = settings: cited from earlier work
[2] = tested on: transmembrane serine protease 2; settings: cited from earlier work
[3] = tested on: cerulein-induced pancreatitis in T7K24R mice; experiment: Cerulein-induced pancreatitis in T7K24R mice; assay type: in vivo, mouse
Procedure: Pancreatitis was induced in T7K24R mice with 8 hourly intraperitoneal injections of the secretagogue peptide cerulein used in a dose of 50 μg/kg. Cerulein (catalog number C9026, MilliporeSigma) was dissolved in sterile normal saline at 10 μg/mL concentration. Mice were sacrificed 1, 24, 48, 72, or 96 hours from the first cerulein injection, as indicated, and the pancreas and blood were harvested. Details of histological analysis and measurement of plasma amylase (4 μL assayed) were reported previously ([29]–[31]).
(§1) Control mice were given gavage of the vehicle solution (Captisol; see below) or regular chow.
(§2) Captisol (β-cyclodextrin sulfobutyl ethers, sodium salts, lot number NC-04A-180185) was obtained from Cydex Pharmaceuticals (through Thermo Fisher Scientific) and was dissolved in sterile normal saline (3.5 g in 10 mL). […] The mixture was then compressed into pellets using the barrel of a 10 mL plastic syringe and a plunger. The prodrug-containing pellets were allowed to dry at 24°C for 2 days and stored at 4°C until use.

[4] = tested on: spontaneous pancreatitis in T7D23A mice; experiment: Spontaneous pancreatitis in T7D23A mice, oral gavage; assay type: in vivo, mouse
Source text: (§3) The generation and properties of the T7D23A and T7K24R mice carrying trypsinogen mutations were described recently ([29], [30]). Heterozygous T7D23A and homozygous T7K24R mice were used. Protocols for genotyping have been reported earlier ([29], [30]). C57BL/6N mice were purchased from Charles River Laboratories or produced in our breeding facility from the same stock. Both male and female mice were studied.
as §1, §2

[5] = tested on: spontaneous pancreatitis in T7D23A mice; experiment: Spontaneous pancreatitis in T7D23A mice, feeding with drug-containing chow; assay type: in vivo, mouse
Source text: as §3, §1, §2

T7D23A and T7K24R mice = experiment: Safety observations in treated mice; assay type: in vivo, mouse
Source text: as §1

[6] = Estimation of absorbed dabigatran etexilate; parameters: species or system mouse
[7] = humans; independent of dose, not influenced by food; cited from earlier work
[8] = single oral gavage 200 mg/kg 30 minutes after last cerulein injection, 96 hours
[9] = single oral gavage 200 mg/kg, 15 treated mice
[10] = gavage 1 × 100, 2 × 100 or 1 × 200 mg/kg daily for 2 weeks

## COc1ccc(-n2nc(C(N)=O)c3c2C(=O)N(c2ccc(N4CCCCC4=O)cc2)CC3)cc1 [apixaban]
[1]; 100 mg/kg alone
  therapeutic activity: no therapeutic activity whatsoever
[1]; apixaban 100 mg/kg combined with camostat 200 mg/kg
  therapeutic activity: highly effective
trypsin
  trypsin-inhibitory activity: devoid of trypsin-inhibitory activity

## CN(C)C(=O)COC(=O)Cc1ccc(OC(=O)c2ccc(NC(=N)N)cc2)cc1 [camostat]
[1]; 200 mg/kg alone
  therapeutic activity: only a partial effect
[2]
  inhibition of transmembrane serine protease 2: strong inhibitors

## CCCCCCOC(=O)NC(=N)c1ccc(NCc2nc3cc(C(=O)N(CCC(=O)OCC)c4ccccn4)ccc3n2C)cc1 [dabigatran etexilate]
[3]; [8]
  body weight, start versus end of experiment: no change in body weight
  pancreas weight versus vehicle-treated mice with pancreatitis: significantly higher
[3]; [9]
  share of drug-treated mice with complete protective effect (histology): ~50%
  share of mice with significant yet incomplete effect (30%–50% normal histology): about 20%
[3]; single oral gavage 200 mg/kg, 4 days after induction
  plasma amylase activity in a subset of treated mice (4 of 15): more than 3 fold
[3]; single oral gavage 200 mg/kg, histology at 96 hours
  proportion of intact acini versus vehicle-treated group: significantly higher
[3]; single oral gavage 200 mg/kg, the 4 mice with elevated amylase, 200 mg/kg
  intact acini on pancreas sections, individual mice with elevated plasma amylase: 45% and 13% and 15% and 35%
[4]; [10]
  intact acini per visual field, treated versus untreated: no appreciable difference
  pancreas weight: did not improve
  plasma amylase levels relative to untreated T7D23A controls: significantly lower
[4]; gavage 1 × 100, 2 × 100 or 1 × 200 mg/kg daily for 2 weeks, 3 to 5 weeks of age
  body weight gain: unaffected by gavage treatment
[4]; intragastric gavage for 2 weeks
  effect on spontaneous pancreatitis: did not ameliorate
[5]; chow with 10 mg/g for 1 week
  effect on spontaneous pancreatitis: did not prevent or improve
  intact acini, pancreatitis severity: no effect
[5]; chow with 10 mg/g for 1 week, all 4 groups
  plasma amylase activities: comparable
[5]; chow with 10 mg/g for 1 week, both strains (C57BL/6N and T7D23A)
  pancreas weight, treated versus untreated: small increase
[5]; chow with 10 mg/g, 21 to 28 days of age, C57BL/6N and T7D23A
  body weight gain: gained weight similarly
T7D23A and T7K24R mice; gavage 100 or 200 mg/kg or chow 10 mg/g
  bleeding, morbidity, mortality: no bleeding, morbidity, or mortality were observed
T7D23A and T7K24R mice; mice treated with dabigatran etexilate or vehicle
  hematoxylin-eosin sections of liver, intestine, and kidney: no signs of organ damage
[6]; 10 mg prodrug/g chow, about 4 g chow per 24 hours, estimated
  daily dose of absorbed dabigatran etexilate: 2.6 mg
[6]; 100 mg/kg intragastric gavage, 20 g mouse, estimated from human bioavailability
  systemically absorbed single dose: 0.13 mg
[7]
  oral bioavailability: around 6.5%
[1]; PRSS1^R122H transgenic mice
  effect on cerulein-induced pancreatitis: markedly improved

## N=C(N)c1ccc2cc(OC(=O)c3ccc(N=C(N)N)cc3)ccc2c1 [nafamostat]
[2]
  inhibition of transmembrane serine protease 2: strong inhibitors
